In US20230240290A1, “USE OF (Z)-3-HEXENYL ESTERS AND METHOD FOR PROTECTING PLANTS AGAINST PESTS” (UNIVERSITAT POLITÈCNICA DE VALÈNCIA, priority 2020, published 2023):

What was measured:
jasmonic acid pathway = details: corn exposed to the volatile; Engelberth et al. 2004; cited from earlier work
[1] = system: PR1 (marker gene for the salicylic acid signaling pathway); experiment: Transcriptional response of defense gene PR1 in tomato plants exposed to volatiles (laboratory); format: in vivo, Solanum lycopersicum cv. Moneymaker; details: intact tomato plants exposed 24 h; filter paper, 1:10,000 ester:methanol; n=8
Protocol: (§1) Moneymaker tomato plants were used. Two weeks after seed germination, the seedlings were individually transplanted into pots (8×8×8 cm). The plants were kept at 25±2° C., with a constant relative humidity of 65%±5% and a 14:10 h (light:dark) photoperiod. Tomato plants that had not received any pesticide treatment at four weeks of age (about 20 cm tall) were used. All volatiles used were obtained from Sigma-Aldrich (St. Louis, Mo., USA). Each volatile was exposed by using a 2×2 cm piece of filter paper on which 10 μl of a solution containing the corresponding volatile at a concentration of 1:10,000 [(Z)-3-hexenyl ester:methanol] was impregnated as an emitting source of the corresponding volatile (Pérez-Hedo, M. et al. Biocontrol, 63: 203-213 (2018)).
(§2) To activate a plant, two pieces of filter paper impregnated with the volatile were placed at the bottom of a 30×30×30 cm plastic cage (BugDorm-1 Insect Tents; MegaView Science Co., Ltd, Taichung, Taiwan) into which the plant was introduced. A control treatment was carried out in which the two pieces of filter paper were impregnated with 10 μl of methanol. Eight repetitions per treatment were performed. The plants of the treatments were kept exposed to the volatile without disturbing for 24 hours in separate and isolated climatic chambers to avoid any interference from the volatiles and were kept at 25±2° C., 65±10% RH, and a 14:10 h (L:D) photoperiod. […]
(§3) The methodology followed for extracting and quantifying gene expression was described by Pérez-Hedo et al. Journal of Pest Science 3: 543-554 (2015). The primers used were forward primer: 5′-[…]-3′ (SEQ ID NO: 1) and reverse primer: 5′-[…]-3′ (SEQ ID NO: 2) for the quantification of PR1, forward primer: 5′-[…]-3′ (SEQ ID NO: 3) and reverse primer: 5′-[…]-3′ (SEQ ID NO: 4) for SI-PI-I, and forward primer: 5′-[…]-3′ (SEQ ID NO: 5) and reverse primer: 5′-[…]-3′ (SEQ ID NO: 6) for the SI-PI-II gene. […]

[2] = system: SI-PI-I (marker for plant proteinase inhibitors); experiment: Transcriptional response of SI-PI-I in tomato plants exposed to volatiles (laboratory); format: in vivo, Solanum lycopersicum cv. Moneymaker; details: intact tomato plants exposed 24 h; filter paper, 1:10,000 ester:methanol; n=8
Protocol: as §1, §2, §3

[3] = system: SI-PI-II (marker for plant proteinase inhibitors); experiment: Transcriptional response of SI-PI-II in tomato plants exposed to volatiles (laboratory); format: in vivo, Solanum lycopersicum cv. Moneymaker; details: intact tomato plants exposed 24 h; filter paper, 1:10,000 ester:methanol; n=8
Protocol: as §1, §2, §3

Bemisia tabaci = details: Pérez-Hedo et al. Biocontrol 2018; cited from earlier work
Encarsia formosa = details: Pérez-Hedo et al. Biocontrol 2018; cited from earlier work
T. absoluta = details: Pérez-Hedo et al. Biocontrol 2018; cited from earlier work

Row | Structure (SMILES) | Jasmonic acid pathway expression (jasmonic acid pathway) | Transcriptional response of PR1 compared to the control [1] | Transcriptional response of SI-PI-I compared to the control [2] | Transcriptional response of SI-PI-II compared to the control [3] | also measured
1 | CC/C=C\CCO [(Z)-3-hexen-1-ol] | overexpress | – | – | – | –
2 | CC/C=C\CC=O [(Z)-3-hexenal] | overexpress | – | – | – | –
3 | CC/C=C\CCOC(C)=O [(Z)-3-hexenyl acetate] | overexpress | significantly overexpressed | significantly overexpressed | significantly overexpressed | –
4 | CC/C=C\CCOC(=O)CCC [(Z)-3-hexenyl butanoate] | – | significantly overexpressed | significantly overexpressed | significantly overexpressed | –
5 | COC(=O)c1ccccc1O [methyl salicylate] | – | – | – | – | Effect of the volatile on B. tabaci (Bemisia tabaci): repellent; Effect of the volatile on E. formosa (Encarsia formosa): attractive; Effect of the volatile on T. absoluta (T. absoluta): no effect
